Data: BindingDB's records for patent US11897898 (Biogen Ma, 2024)

Molecular target: T1, Mitogen-activated protein kinase kinase kinase 5 (Homo sapiens, UniProt Q99683)
T1 sequence (Q99683 whole entry): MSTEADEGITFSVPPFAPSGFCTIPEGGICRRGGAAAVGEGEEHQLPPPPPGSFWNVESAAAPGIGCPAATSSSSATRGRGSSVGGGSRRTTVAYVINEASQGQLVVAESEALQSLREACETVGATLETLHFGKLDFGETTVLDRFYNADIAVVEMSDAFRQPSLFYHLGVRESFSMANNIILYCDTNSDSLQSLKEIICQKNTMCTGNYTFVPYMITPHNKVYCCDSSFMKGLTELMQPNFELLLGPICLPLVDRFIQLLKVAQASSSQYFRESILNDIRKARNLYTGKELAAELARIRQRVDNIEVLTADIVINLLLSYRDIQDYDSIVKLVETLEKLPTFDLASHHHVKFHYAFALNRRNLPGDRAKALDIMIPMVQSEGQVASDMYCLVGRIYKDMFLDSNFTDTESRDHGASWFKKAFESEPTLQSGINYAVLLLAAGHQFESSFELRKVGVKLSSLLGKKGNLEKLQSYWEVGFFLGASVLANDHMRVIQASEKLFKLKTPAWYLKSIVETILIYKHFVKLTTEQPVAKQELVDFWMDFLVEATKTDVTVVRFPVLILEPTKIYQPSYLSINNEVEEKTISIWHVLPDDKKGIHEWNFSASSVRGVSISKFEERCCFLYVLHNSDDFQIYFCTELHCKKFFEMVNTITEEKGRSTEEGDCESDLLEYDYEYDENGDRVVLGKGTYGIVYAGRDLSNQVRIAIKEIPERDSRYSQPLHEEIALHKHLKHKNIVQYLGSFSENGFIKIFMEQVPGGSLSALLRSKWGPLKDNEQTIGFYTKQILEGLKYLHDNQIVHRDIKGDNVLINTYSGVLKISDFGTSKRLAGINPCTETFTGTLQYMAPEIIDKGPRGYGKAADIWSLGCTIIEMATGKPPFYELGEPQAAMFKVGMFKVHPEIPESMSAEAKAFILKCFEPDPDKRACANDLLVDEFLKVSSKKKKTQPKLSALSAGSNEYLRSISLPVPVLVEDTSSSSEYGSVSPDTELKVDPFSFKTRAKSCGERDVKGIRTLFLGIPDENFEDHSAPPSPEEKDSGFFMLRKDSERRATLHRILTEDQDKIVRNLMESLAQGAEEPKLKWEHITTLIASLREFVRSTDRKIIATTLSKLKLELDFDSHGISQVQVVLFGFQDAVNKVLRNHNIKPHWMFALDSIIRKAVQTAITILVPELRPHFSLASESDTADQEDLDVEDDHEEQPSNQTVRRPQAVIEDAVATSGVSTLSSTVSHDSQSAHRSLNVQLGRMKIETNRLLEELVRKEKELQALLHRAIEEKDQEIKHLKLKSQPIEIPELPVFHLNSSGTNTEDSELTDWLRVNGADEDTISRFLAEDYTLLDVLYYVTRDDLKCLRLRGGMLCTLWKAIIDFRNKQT
Test: ASK1 Enzyme Assay
Description: The protein kinase inhibitory activity of the compounds described herein were tested using the ASK1/MAP3K5 assay by Reaction Biology Corp. (Malvern, Pa.). The assay procedure follows (and is also available on the Reaction Biology Corp. website).Base Reaction Buffer: 20 mM Hepes (pH 7.5), 10 mM MgCl2, 1 mM EGTA,0.02% Brij35, 0.02 mg/mL BSA, 0.1 mM Na3VO4, 2 mM DTT, 1% DMSO;Substrate: 20 μM of myelin basic protein (MBP) and 10 μM ATP;Protein kinase: ASK1/MAP3K5.Reaction Procedure:1. Prepare indicated substrate in freshly prepared Base Reaction Buffer.2. Deliver any required cofactors to the substrate solution.3. Deliver indicated kinase into the substrate solution and gently mix.4. Deliver compounds in DMSO into the kinase reaction mixture by Acoustic; technology (Echo550; nanoliter range), incubate for 20 minutes at room temperature.5. Deliver 33P-ATP (specific activity 10 μCi/μL) into the reaction mixture to initiate the reaction.6. Incubate kinase reaction for 2 hours at room temperature.7. Reactions are spotted onto P81 ion exchange paper.8. Detect kinase activity by filter-binding method.

IC50	Compound
in the range around 550 nM	C[C@@H]1CCCOc2ncc(N3CCOCC3)cc2C(=O)Nc2cccc(n2)-c2nncn21 [US11897898, Example 6]
in the range around 550 nM	C[C@@H]1CCCOc2ncc(-c3ccncc3)cc2C(=O)Nc2cccc(n2)-c2nncn21 [US11897898, Example 18]
